From US20240216354A1, “IMMUNOMODULATORY IMIDE DRUGS AS ZETA-CHAIN-ASSOCIATED PROTEIN KINASE 70 (ZAP70) AGONISTS AND USES THEREOF” (Dana-Farber Cancer Institute, Inc., priority 2019, published 2024)

What was measured:
[1] = target: T1, Zap-70 (Homo sapiens, UniProt P43403); assay: Saturation-transfer difference (STD) NMR binding to recombinant Zap-70; design: purchased Origene, Rockville, MD; details: Pom 320 μM, Len 2.56 mM, ATP 2.56 mM, Zap-70 approximately 2 μM, deuterated PBS
T1 sequence (P43403 1-619): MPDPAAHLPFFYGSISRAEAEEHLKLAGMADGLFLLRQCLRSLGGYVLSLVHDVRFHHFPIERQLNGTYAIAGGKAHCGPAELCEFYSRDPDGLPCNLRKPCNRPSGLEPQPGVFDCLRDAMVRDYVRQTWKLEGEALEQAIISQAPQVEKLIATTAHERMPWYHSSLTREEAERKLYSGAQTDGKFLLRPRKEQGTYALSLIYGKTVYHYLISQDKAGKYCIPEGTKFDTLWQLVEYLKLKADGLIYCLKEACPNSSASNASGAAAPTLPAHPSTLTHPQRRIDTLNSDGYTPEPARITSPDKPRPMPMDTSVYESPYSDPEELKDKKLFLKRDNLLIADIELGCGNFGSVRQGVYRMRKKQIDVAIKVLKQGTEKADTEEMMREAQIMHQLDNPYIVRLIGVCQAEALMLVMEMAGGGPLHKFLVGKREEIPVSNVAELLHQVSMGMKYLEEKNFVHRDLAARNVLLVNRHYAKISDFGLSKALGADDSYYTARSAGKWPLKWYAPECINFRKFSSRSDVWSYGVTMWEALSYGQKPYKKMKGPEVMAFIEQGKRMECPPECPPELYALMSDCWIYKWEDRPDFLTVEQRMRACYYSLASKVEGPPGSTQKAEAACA
Experimental: (§1) (A) Jurkat cells were transfected with scrambled (Sc) siRNA or Zap-70 siRNA. Whole cell lysates were subjected to immunoblotting using indicated Abs. (B) Jurkat cells were treated with lenalidomide ([…]) or pomalidomide (1 and 3 μM) for 4 h and 8 h. Whole cell lysates were subjected to p-Zap ELISA assay. (C) Jurkat whole cell lysates were incubated with pomalidomide-beads in the presence or absence of competitor (1 mM free pomalidomide) for 1 h. After elution, samples were subjected to immunoblotting using anti-Zap-70 Ab. (D) Saturation-transfer difference resulting from the binding of pomalidomide to Zap-70. Pomalidomide is at 320 μM and Zap-70 is approximately 2 μM in deuterated PBS solution. […] (E) Saturation-transfer difference resulting from the binding of pomalidomide to Zap-70 in the presence of 2.56 mMATP. Pomalidomide is at 320 μM and Zap-70 is approximately 2 μM in deuterated PBS solution. […] Note that both ATP and pomalidomide show binding the Zap-70. (F) Non-cell based Zap-70 kinase assay was carried out, according to manufacturer's protocol.
(A) Saturation-transfer difference resulting from the binding of lenalidomide to Zap-70, with lenalidomide (2.56 mM) and Zap-70 (2 μM) in deuterated PBS solution. […] (B) Saturation-transfer difference resulting from the binding of lenalidomide to Zap70 in the presence of 2.56 mM ATP, with lenalidomide (2.56 mM) and Zap-70 (2 μM) in deuterated PBS solution.
Commercial recombinant Zap-70 (Origene, Rockville, MD) was prepared by gel filtration buffer exchange into deuterated phosphate-buffered saline (PBS), which removed any components of the protein storage buffer, including glycerol. Len and Pom were made as d6-DMSO stock solutions and frozen in aliquots prior to use. ATP was stored frozen in aliquots at −20° C. in deuterated PBS. NMR samples were prepared in 5 mm SampleJet tubes to a final volume of 500 μl by adding 5-20 μl of the appropriate IMiD stock solution to the buffer-exchanged protein. The final concentration of protein in the NMR samples was approximately 2 μM. […]

[2] = target: CRBN (Homo sapiens, UniProt Q96SW2); details: cited from earlier work
[3] = system: granzyme-B (GZM-B); assay: GZM-B expression in KHYG-1 cells (immunoblotting, real-time qPCR); format: cell-based
Experimental: (A) KHYG1 cells were cultured with pomalidomide (0.25-1 μM) for 24 h. (B) Isolated primary NK cells from healthy volunteers (#1, #2) were cultured with pomalidomide (0.3-1 μM) for 24 h. (C) KHYG-1 cells were transfected with Scsi or Zap-70si. After 48 h, cells were cultured for 24 h in the absence or presence (0.5 μM) of pomalidomide. Whole cell lysates and RNAs were subjected to immunoblotting using indicated Abs.
(A) KHYG-1 cells were transfected with Scsi or CRBNsi. After 48 h, cells were cultured in the absence or presence of pomalidomide (0.5 μM) for 24 h, and cell lysates immunoblotted with indicated Abs. (B) KHYG-1 cells were transfected with Scsi or Zap-70si, and then cultured for 72 h with pomalidomide (0.25 μM), in the absence of IL-2. Cells were counted and incubated with calcein AM-labeled U266 for 4 h at indicated effector/target (E/T) ratios.
(§2) (A) KHYG-1 cells were transfected with CRBN, IKZF1, or IKZF3 siRNA. The transfectants were then cultured for 24 h with pomalidomide (0.5 μM). The arrow indicates CRBN. (B) KHYG-1 cells were cultured with pomalidomide for 24 h (0.5 μM), in the presence or absence of bortezomib (BTZ; 2.5 and 5 nM). (C, D) KHYG-1 cells were cultured for 24 h with lenalidomide, pomalidomide, or CC-220 (i.e., iberdomide) (0.01-1 μM). Whole cell lysates and RNAs were subjected to immunoblotting using indicated Abs (C) and real-time q-PCR (D), respectively.

[4] = system: U266 cells; assay: NK-92 NK cell activity against calcein-AM-stained U266 cells; format: cell-based; details: NK-92 cells, 48 h; Pom 0.5 and 1 μM; CC-220 0.1 and 1 μM, E/T 2.5/1
Experimental: (§3) (A) NK-92 cells were cultured with Pom (0.5 and 1 μM) for 24 h. Whole cell lysates were subjected to immunoblotting using indicated Abs. (B) NK-92 cells were cultured with Pom (0.5 and 1 μM) for 48 h. The cells were subsequently incubated with calcein-AM-stained U266 cells for 4 h at the indicated effector/target (E/T) ratios. Percent specific lysis was calculated as described previously. (C) NK-92 cells were cultured with Pom (0.03-3 μM) for 72 h. Cell growth was assessed by MTT assay. (D) NK-92 cells were transfected with scrambled (Sc) or Zap-70 siRNA (Zap70si). After 72 h incubation, cell viability was measured by trypan-blue dye exclusion. For B, C, and D, data are representative of at least two independent experiments, and values are expressed in mean±SD.
(§4) (A) NK-92 cells were cultured with Len (1 μM), Pom (0.01, 0.1, 1 μM) or CC-220 (0.01, 0.1, 1 μM) for 24 h. Whole cell lysates were subjected to immunoblotting using indicated Abs. (B) NK-92 cells were cultured with Pom (0.1 and 1 μM) or CC-220 ([…]) for 48 h. NK cell activity was measured by incubation with calcein AM-labeled U266 cells for 4 h at E/T ratio of 2.5/1. Percent specific lysis was calculated as previously described. Data are representative of three independent experiments, and values are expressed in mean±SD. *: p<0.01.

[5] = system: IKZF3; assay: IKZF3 expression in KHYG-1 cells (immunoblotting); format: cell-based
Experimental: as §2

[6] = target: T1, Zap-70; assay: Immunoblotting of p-Zap-70 in NK-92 cells; format: cell-based; details: 24 h, Pom 0.5 and 1 μM, CC-220 0.01, 0.1, 1 μM
Experimental: as §3, §4

[7] = target: T1, Zap-70; assay: Immunoblotting of p-Zap-70, p-LAT and p-ERK in PBMCs; format: cell-based; design: endogenous in cells; host or cells: primary PBMCs, primary T cells and primary NK cells from healthy volunteers; details: 16 h, Pom 0.01-1 μM, Len 1 μM
Experimental: (A) PBMCs were cultured with pomalidomide (“Pom”) (0.01-1 μM) for 16 h. […] (B) PBMCs were cultured with pomalidomide (0.1 and 1 μM) for the indicated time periods. (C) PBMCs were cultured with lenalidomide (“Len”) (1 μM) for 16 h. (D) Primary T-cells from healthy volunteer were cultured with pomalidomide (0.25-1 μM) for 16 h. (E) Jurkat cells were cultured with pomalidomide (0.5 and 1 μM) for 16 h. Whole cell lysates were subjected to immunoblotting (A-E) using indicated Abs. (F) Jurkat cells were cultured with pomalidomide (0.01-1 μM) or lenalidomide (0.01-1 μM) for 72 h. Cell growth was assessed by MTT assay.
To characterize the effect of IMiDs on Zap-70 function in immune effector cells, pomalidomide triggered phosphorylation of Zap-70 was evaluated along with its known downstream target linker of activated T-cells (LAT) in PBMCs from healthy volunteers. […] Image J densitometric analysis confirmed 42% increased p-Zap-70 after pomalidomide (1 μM) treatment (FIG. 1A, lower panel). The increased p-Zap-70, p-LAT, as well as downstream p-ERK in PBMCs triggered by pomalidomide is also time-dependent (FIG. 1B). […] Since Zap-70 is a mediator of T-cell receptor signaling, whether IMiDs triggered p-Zap-70 in T cells from healthy volunteers was studied.

[8] = target: T1, Zap-70; assay: PathScan Phospho-Zap-70 (Tyr319) Sandwich ELISA in Jurkat cells; format: cell-based; details: lenalidomide (1 and 3 μM) or pomalidomide (1 and 3 μM), 4 h and 8 h, Len<Pom
Experimental: as §1
Phosphorylation of Zap-70 was evaluated using PathScan Phospho-Zap-70 (Tyr319) Sandwich ELISA Kit (Cell Signaling Technology), according to manufacturer's protocol.

[9] = pomalidomide 0.5 μM 24 h, BTZ 2.5 and 5 nM

Chain of CRBN (Q96SW2 whole entry, species assumed): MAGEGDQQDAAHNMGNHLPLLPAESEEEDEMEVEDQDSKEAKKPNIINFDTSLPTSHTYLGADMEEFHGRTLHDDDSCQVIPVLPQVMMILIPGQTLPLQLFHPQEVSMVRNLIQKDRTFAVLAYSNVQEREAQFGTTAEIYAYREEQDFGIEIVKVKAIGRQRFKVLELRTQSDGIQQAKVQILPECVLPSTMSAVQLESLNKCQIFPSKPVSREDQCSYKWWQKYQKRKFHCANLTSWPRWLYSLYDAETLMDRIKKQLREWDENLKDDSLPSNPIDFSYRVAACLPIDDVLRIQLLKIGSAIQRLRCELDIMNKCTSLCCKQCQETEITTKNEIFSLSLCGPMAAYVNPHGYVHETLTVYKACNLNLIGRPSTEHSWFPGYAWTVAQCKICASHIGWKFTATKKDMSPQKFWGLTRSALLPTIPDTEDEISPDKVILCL

Nc1ncnc2c1ncn2[C@@H]1O[C@H](COP(=O)(O)OP(=O)(O)OP(=O)(O)O)[C@@H](O)[C@H]1O [ATP]
direct binding to Zap-70 (STD NMR) [1]: both ATP and lenalidomide bind to Zap-70

O=C1CC[C@H](N2Cc3c(OCc4ccc(CN5CCOCC5)cc4)cccc3C2=O)C(=O)N1 [CC-220, iberdomide]
binding affinity to CRBN relative to lenalidomide or pomalidomide [2]: enhanced binding affinity to CRBN relative to lenalidomide or pomalidomide | potency in triggering GZM-B, compared among lenalidomide, pomalidomide and CC-220 ([3]; 0.01-1 μM, 24 h, immunoblotting and real-time qPCR): more potently upregulated GZM-B than lenalidomide or pomalidomide | NK cell activity against U266 cells (percent specific lysis) [4]: enhanced NK cell activity | IKZF3 expression ([5]; 0.01-1 μM, 24 h): downregulation of IKZF3 | p-Zap-70 (immunoblotting) [6]: induced p-Zap-70 in a dose-dependent fashion

CC(C)C[C@H](NC(=O)[C@H](Cc1ccccc1)NC(=O)c1cnccn1)B(O)O [bortezomib]
Pom-induced GZM-B expression in presence of bortezomib [3, 9]: downregulated Pom-induced GZM-B expression in a dose-dependent fashion | IKZF3 expression in presence of bortezomib [5, 9]: upregulation of IKZF3

Nc1cccc2c1CN(C1CCC(=O)NC1=O)C2=O (stereo not drawn) [lenalidomide]
phosphorylation of LAT (immunoblotting) [7]: similarly triggered p-Zap-70 and p-LAT in PBMCs | phosphorylation of Zap-70 (immunoblotting) [7]: similarly triggered p-Zap-70 and p-LAT in PBMCs | p-Zap-70 (Tyr319) by ELISA [8]: increased p-Zap-70 (Tyr319) in a dose-dependent fashion | direct binding to Zap-70 (STD NMR) [1]: similarly binds to Zap-70
